Reference: ChEMBL document CHEMBL4507262, “Data for DCP probe A-1596586” (2021)

Experiments:
[1] = biological target: Cytoplasmic tyrosine-protein kinase BMX (Homo sapiens) (UniProt P51813); conditions: Compound concentration 1000.0 nM
[2] = biological target: Serine/threonine-protein kinase PknB (Mycobacterium tuberculosis) (UniProt P9WI81); conditions: Compound concentration 1000.0 nM
[3] = biological target: Cyclin-dependent kinase 13 (Homo sapiens) (UniProt Q14004); conditions: Compound concentration 1000.0 nM
[4] = biological target: Calcium/calmodulin-dependent protein kinase type IV (Homo sapiens) (UniProt Q16566); conditions: Compound concentration 1000.0 nM
[5] = biological target: Cannabinoid receptor 2 (Homo sapiens) (UniProt P34972); experiment: CB2 (h) Eurofins-Cerep binding assay; parameters: ligand concentration 0.8 nM; conditions: filed as agonist, Compound concentration 10.0 uM
[6] = biological target: T1, Muscarinic acetylcholine receptor M5 (Homo sapiens) (UniProt P08912); conditions: Compound concentration 10.0 uM
T1 sequence (whole entry): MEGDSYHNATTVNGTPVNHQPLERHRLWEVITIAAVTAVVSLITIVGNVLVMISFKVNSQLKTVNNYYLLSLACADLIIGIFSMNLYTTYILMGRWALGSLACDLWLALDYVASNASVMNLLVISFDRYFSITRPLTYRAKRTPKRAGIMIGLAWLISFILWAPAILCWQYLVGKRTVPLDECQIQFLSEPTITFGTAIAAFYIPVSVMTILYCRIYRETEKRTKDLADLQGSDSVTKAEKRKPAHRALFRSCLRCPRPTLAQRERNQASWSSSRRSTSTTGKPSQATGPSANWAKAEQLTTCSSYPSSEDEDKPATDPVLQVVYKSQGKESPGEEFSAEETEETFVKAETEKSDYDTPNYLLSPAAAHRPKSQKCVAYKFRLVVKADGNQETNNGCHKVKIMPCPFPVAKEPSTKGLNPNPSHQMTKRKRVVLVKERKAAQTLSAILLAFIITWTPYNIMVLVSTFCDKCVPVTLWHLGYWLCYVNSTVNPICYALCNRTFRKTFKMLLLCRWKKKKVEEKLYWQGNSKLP

[7] = biological target: Serine/threonine-protein kinase MRCK gamma (Homo sapiens) (UniProt Q6DT37); conditions: Compound concentration 1000.0 nM
[8] = biological target: D(2) dopamine receptor (Homo sapiens) (UniProt P14416); experiment: D2S (h) Eurofins-Cerep binding assay; parameters: ligand concentration 0.3 nM; conditions: filed as antagonist, Compound concentration 10.0 uM
[9] = biological target: Serine/threonine-protein kinase Nek4 (Homo sapiens) (UniProt P51957); conditions: Compound concentration 1000.0 nM
[10] = biological target: Calcium/calmodulin-dependent protein kinase type II subunit delta (Homo sapiens) (UniProt Q13557); conditions: Compound concentration 1000.0 nM
[11] = biological target: MAP kinase-activated protein kinase 5 (Homo sapiens) (UniProt Q8IW41); conditions: Compound concentration 1000.0 nM
[12] = biological target: Ephrin type-A receptor 6 (Homo sapiens) (UniProt Q9UF33); conditions: Compound concentration 1000.0 nM
[13] = biological target: Serine/threonine-protein kinase N1 (Homo sapiens) (UniProt Q16512); conditions: Compound concentration 1000.0 nM
[14] = biological target: Interferon-induced, double-stranded RNA-activated protein kinase (Homo sapiens) (UniProt P19525); conditions: Compound concentration 1000.0 nM
[15] = biological target: TGF-beta receptor type-1 (Homo sapiens) (UniProt P36897); conditions: Compound concentration 1000.0 nM
Rattus norvegicus = organism: Rattus norvegicus; experiment: SKCa channel Eurofins-Cerep binding assay; parameters: ligand concentration 0.007 nM; conditions: filed as antagonist, Compound concentration 10.0 uM
[16] = biological target: Serine/threonine-protein kinase tousled-like 2 (Homo sapiens) (UniProt Q86UE8); conditions: Compound concentration 1000.0 nM
[17] = biological target: Proto-oncogene tyrosine-protein kinase receptor Ret (Homo sapiens) (UniProt P07949); conditions: Compound concentration 1000.0 nM
[18] = biological target: Receptor tyrosine-protein kinase erbB-4 (Homo sapiens) (UniProt Q15303); conditions: Compound concentration 1000.0 nM
[19] = biological target: Serine/threonine-protein kinase 16 (Homo sapiens) (UniProt O75716); conditions: Compound concentration 1000.0 nM
[20] = system: Mast/stem cell growth factor receptor Kit (Homo sapiens), P10721 [L576P]; conditions: Compound concentration 1000.0 nM
[21] = system: Tyrosine-protein kinase ABL1 (Homo sapiens), P00519 [F317L]; conditions: Compound concentration 1000.0 nM
[22] = system: Receptor-type tyrosine-protein kinase FLT3 (Homo sapiens), P36888 [K663Q]; conditions: Compound concentration 1000.0 nM
[23] = biological target: Cyclin-dependent kinase-like 3 (Homo sapiens) (UniProt Q8IVW4); conditions: Compound concentration 1000.0 nM
[24] = biological target: Sigma intracellular receptor 2 (Homo sapiens, UniProt Q5BJF2); conditions: Compound concentration 10.0 uM
[25] = biological target: Activin receptor type-1-like (Homo sapiens) (UniProt P37023); conditions: Compound concentration 1000.0 nM
[26] = biological target: Mitogen-activated protein kinase kinase kinase 5 (Homo sapiens) (UniProt Q99683); conditions: Compound concentration 1000.0 nM
[27] = biological target: Serine/threonine-protein kinase Nek5 (Homo sapiens) (UniProt Q6P3R8); conditions: Compound concentration 1000.0 nM
[28] = biological target: Serine/threonine-protein kinase Nek2 (Homo sapiens) (UniProt P51955); conditions: Compound concentration 1000.0 nM
[29] = biological target: Tyrosine-protein kinase JAK1 (Homo sapiens) (UniProt P23458); conditions: Compound concentration 1000.0 nM
[30] = biological target: Histamine H1 receptor (Homo sapiens) (UniProt P35367); experiment: H1 (h) Eurofins-Cerep binding assay; parameters: ligand concentration 1 nM; conditions: filed as antagonist, Compound concentration 10.0 uM
[31] = biological target: Serine/threonine-protein kinase 3 (Homo sapiens) (UniProt Q13188); conditions: Compound concentration 1000.0 nM
[32] = biological target: Tyrosine-protein kinase JAK3 (Homo sapiens) (UniProt P52333); conditions: Compound concentration 1000.0 nM
[33] = biological target: Hormonally up-regulated neu tumor-associated kinase (Homo sapiens) (UniProt P57058); conditions: Compound concentration 1000.0 nM
[34] = biological target: Dual specificity protein kinase CLK3 (Homo sapiens) (UniProt P49761); conditions: Compound concentration 1000.0 nM
[35] = biological target: Cannabinoid receptor 1 (Homo sapiens) (UniProt P21554); experiment: CB1 (h) Eurofins-Cerep binding assay; parameters: ligand concentration 0.5 nM; conditions: filed as agonist, Compound concentration 10.0 uM
[36] = biological target: Phosphatidylinositol 4,5-bisphosphate 3-kinase catalytic subunit alpha isoform (Homo sapiens) (UniProt P42336); conditions: Compound concentration 1000.0 nM
[37] = biological target: Rhodopsin kinase GRK1 (Homo sapiens) (UniProt Q15835); conditions: Compound concentration 1000.0 nM

Chain of Cyclin-dependent kinase 13 (Homo sapiens) (Q14004 whole entry, looked up): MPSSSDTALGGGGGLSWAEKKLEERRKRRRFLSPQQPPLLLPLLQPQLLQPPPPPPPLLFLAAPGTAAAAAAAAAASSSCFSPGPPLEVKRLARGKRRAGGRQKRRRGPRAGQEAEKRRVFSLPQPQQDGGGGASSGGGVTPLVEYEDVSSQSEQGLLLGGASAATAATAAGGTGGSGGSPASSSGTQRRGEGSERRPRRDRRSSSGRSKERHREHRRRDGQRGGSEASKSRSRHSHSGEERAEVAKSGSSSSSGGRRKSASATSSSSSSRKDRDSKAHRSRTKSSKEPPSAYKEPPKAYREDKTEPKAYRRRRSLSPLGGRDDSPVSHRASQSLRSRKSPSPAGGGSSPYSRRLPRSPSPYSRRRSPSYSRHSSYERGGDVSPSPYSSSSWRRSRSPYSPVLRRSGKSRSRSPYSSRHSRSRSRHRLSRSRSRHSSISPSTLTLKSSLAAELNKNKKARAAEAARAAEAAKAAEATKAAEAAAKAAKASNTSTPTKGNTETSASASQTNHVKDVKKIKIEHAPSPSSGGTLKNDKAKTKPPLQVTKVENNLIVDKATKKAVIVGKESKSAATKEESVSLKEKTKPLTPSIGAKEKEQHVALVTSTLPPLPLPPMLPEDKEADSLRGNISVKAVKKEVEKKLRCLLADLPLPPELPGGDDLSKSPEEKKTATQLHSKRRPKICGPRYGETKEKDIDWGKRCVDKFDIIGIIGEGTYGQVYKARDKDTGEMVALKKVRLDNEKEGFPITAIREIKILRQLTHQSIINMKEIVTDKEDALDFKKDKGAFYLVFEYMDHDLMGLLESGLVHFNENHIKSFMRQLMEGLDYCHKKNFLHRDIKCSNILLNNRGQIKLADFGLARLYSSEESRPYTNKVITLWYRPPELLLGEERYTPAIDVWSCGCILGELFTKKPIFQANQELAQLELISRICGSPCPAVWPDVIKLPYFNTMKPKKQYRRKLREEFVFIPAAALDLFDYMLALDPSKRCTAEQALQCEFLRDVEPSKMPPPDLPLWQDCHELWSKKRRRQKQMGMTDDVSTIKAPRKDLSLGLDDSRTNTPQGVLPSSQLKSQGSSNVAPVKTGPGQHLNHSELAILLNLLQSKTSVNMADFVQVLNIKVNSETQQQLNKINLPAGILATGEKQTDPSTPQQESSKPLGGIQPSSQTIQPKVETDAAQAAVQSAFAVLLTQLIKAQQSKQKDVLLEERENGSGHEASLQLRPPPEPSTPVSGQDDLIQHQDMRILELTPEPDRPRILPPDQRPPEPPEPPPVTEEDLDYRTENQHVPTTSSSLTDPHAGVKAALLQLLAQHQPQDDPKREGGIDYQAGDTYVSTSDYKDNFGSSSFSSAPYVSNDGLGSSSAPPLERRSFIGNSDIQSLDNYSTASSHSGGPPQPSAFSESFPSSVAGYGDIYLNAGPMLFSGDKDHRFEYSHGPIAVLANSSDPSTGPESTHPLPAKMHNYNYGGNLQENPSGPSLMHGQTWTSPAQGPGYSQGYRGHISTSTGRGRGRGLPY
Chain of Cyclin-dependent kinase-like 3 (Homo sapiens) (Q8IVW4 whole entry, looked up): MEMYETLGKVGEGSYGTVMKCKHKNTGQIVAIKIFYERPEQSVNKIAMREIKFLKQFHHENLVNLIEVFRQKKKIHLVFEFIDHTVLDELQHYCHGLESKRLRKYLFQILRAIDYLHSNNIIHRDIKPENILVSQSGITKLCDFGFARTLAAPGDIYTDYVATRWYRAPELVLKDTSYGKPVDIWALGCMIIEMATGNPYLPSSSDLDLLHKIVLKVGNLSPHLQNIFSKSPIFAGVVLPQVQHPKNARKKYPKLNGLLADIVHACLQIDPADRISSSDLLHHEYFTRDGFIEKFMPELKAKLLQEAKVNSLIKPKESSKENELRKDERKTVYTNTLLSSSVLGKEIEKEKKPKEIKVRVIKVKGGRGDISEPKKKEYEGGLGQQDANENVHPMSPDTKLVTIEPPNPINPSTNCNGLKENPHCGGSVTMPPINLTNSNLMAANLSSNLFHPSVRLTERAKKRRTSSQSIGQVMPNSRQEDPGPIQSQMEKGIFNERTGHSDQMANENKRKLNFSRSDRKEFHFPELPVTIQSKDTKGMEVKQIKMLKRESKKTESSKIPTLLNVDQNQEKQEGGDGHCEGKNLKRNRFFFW
Chain of Receptor tyrosine-protein kinase erbB-4 (Homo sapiens) (Q15303 whole entry): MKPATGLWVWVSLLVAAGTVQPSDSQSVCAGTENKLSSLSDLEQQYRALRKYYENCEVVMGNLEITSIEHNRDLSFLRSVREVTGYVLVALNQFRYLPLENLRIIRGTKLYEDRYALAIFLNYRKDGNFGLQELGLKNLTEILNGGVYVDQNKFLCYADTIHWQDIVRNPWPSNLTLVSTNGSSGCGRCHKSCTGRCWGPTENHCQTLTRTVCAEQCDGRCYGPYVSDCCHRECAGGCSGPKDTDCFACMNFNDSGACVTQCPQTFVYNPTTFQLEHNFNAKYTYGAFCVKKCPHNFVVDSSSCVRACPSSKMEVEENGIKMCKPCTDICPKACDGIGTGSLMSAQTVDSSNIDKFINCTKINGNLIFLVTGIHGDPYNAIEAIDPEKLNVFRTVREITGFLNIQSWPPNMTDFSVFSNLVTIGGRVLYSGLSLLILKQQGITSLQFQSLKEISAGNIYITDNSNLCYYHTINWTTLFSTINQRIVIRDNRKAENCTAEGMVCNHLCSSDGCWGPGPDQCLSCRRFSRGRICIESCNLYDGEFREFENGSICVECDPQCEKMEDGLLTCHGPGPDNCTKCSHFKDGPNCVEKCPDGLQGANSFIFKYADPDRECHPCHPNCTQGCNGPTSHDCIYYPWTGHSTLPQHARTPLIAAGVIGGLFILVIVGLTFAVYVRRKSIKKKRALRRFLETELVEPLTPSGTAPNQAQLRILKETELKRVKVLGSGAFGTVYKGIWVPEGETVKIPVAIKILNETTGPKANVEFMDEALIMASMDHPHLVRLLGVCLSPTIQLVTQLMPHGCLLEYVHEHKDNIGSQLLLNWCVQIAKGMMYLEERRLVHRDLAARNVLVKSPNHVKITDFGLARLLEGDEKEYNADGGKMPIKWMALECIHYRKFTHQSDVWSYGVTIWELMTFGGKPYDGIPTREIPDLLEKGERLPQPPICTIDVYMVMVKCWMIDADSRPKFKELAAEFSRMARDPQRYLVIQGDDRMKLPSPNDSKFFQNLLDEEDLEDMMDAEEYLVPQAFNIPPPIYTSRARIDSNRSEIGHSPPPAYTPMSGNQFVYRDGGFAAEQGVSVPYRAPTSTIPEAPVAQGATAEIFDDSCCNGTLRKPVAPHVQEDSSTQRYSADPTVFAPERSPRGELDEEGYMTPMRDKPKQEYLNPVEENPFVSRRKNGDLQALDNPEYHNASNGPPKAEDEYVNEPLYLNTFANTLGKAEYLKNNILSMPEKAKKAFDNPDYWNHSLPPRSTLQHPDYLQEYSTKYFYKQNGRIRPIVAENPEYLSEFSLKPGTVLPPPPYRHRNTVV
Chain of Mast/stem cell growth factor receptor Kit (Homo sapiens), P10721 [L576P] (P10721 whole entry L576P): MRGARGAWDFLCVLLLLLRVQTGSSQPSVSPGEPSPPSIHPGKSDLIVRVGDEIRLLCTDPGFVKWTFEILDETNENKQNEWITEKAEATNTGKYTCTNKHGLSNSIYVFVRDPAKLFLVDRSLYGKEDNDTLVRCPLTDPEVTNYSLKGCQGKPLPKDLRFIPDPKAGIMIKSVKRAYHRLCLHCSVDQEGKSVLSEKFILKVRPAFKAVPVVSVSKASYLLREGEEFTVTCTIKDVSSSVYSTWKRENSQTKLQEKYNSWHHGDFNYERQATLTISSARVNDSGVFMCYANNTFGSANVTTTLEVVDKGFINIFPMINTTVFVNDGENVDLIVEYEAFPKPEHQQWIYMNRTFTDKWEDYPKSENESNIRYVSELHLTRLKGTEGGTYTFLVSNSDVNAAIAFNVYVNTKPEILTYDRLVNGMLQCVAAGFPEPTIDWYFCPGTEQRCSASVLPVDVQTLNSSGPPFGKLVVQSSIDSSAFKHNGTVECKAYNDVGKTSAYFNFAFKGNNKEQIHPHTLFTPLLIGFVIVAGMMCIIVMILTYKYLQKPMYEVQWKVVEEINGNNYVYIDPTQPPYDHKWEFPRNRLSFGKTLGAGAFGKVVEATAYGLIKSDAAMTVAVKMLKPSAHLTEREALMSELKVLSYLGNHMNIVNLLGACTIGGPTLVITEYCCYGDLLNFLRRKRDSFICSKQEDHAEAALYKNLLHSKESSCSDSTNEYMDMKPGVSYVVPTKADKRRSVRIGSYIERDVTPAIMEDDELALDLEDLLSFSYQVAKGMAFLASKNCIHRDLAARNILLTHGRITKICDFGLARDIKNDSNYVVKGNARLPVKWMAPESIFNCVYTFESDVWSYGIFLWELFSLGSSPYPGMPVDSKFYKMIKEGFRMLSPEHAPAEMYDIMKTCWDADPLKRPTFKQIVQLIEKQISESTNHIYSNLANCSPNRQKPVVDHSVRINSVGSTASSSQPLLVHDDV
Chain of Serine/threonine-protein kinase Nek2 (Homo sapiens) (P51955 whole entry): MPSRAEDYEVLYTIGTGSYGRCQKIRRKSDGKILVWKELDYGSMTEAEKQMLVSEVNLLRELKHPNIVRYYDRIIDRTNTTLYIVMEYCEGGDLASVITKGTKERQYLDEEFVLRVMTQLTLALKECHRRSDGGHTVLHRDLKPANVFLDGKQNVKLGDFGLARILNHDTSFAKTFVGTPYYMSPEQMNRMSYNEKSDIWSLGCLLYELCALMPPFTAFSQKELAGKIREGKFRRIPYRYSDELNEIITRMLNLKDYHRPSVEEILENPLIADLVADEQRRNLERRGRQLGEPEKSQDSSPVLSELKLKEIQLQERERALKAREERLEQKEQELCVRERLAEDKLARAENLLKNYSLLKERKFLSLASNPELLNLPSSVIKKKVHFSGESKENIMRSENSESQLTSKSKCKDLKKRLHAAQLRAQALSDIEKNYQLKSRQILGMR
Chain of Sigma intracellular receptor 2 (Q5BJF2 whole entry): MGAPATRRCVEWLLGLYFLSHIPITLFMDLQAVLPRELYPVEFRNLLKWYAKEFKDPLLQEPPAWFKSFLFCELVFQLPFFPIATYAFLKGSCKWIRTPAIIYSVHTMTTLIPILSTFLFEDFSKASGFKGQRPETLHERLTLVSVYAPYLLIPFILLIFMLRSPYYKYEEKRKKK

| SMILES | residual activity [1] [%] | residual activity [2] [%] | residual activity [3] [%] | residual activity [4] [%] | % Inhibition of Control Specific Binding (Mean n=2) [5] [%] | inhibition [6] [%] | residual activity [7] [%] | % Inhibition of Control Specific Binding (Mean n=2) [8] [%] | residual activity [9] [%] | residual activity [10] [%] | residual activity [11] [%] | residual activity [12] [%] | residual activity [13] [%] | residual activity [14] [%] | residual activity [15] [%] | % Inhibition of Control Specific Binding (Mean n=2) (Rattus norvegicus) [%] | residual activity [16] [%] | residual activity [17] [%] | residual activity [18] [%] | residual activity [19] [%] | also measured |
| --- | --- | --- | --- | --- | --- | --- | --- | --- | --- | --- | --- | --- | --- | --- | --- | --- | --- | --- | --- | --- | --- |
| COc1ccc2c(c1)O[C@@H](c1ccc(OC)c(OC)c1)C[C@H]2NC(=O)C1(c2ccc3c(c2)OC(F)(F)O3)CC1 [A-1596586] | 91 | 85 | 98 | 89 | 30.2 | 2.95 | 89 | 27.7 | 75 | 91 | 76 | 89 | 96 | 100 | 100 | 2.2 | 100 | 99 | 90 | 81 | residual activity [20]: 92%; residual activity [21]: 94%; residual activity [22]: 100%; residual activity [23]: 94%; inhibition [24]: 85.8%; residual activity [25]: 97%; residual activity [26]: 94%; residual activity [27]: 71%; residual activity [28]: 97%; residual activity [29]: 100%; % Inhibition of Control Specific Binding (Mean n=2) [30]: 6.7%; residual activity [31]: 96%; residual activity [32]: 88%; residual activity [33]: 100%; residual activity [34]: 100%; % Inhibition of Control Specific Binding (Mean n=2) [35]: 40.8%; residual activity [36]: 86%; residual activity [37]: 95% |
| COc1ccc2c(c1)O[C@H](c1ccc(OC)c(OC)c1)C[C@@H]2NC(=O)C1(c2ccc3c(c2)OC(F)(F)O3)CC1 [A-1596584] | 100 | 88 | 100 | 100 | 73.7 | 16.1 | 89 | 18.7 | 86 | 100 | 100 | 100 | 100 | 100 | 100 | 4 | 98 | 100 | 94 | 100 | residual activity [20]: 100%; residual activity [21]: 97%; residual activity [22]: 100%; residual activity [23]: 97%; inhibition [24]: 85.3%; residual activity [25]: 90%; residual activity [26]: 100%; residual activity [27]: 100%; residual activity [28]: 100%; residual activity [29]: 100%; % Inhibition of Control Specific Binding (Mean n=2) [30]: 4.5%; residual activity [31]: 100%; residual activity [32]: 100%; residual activity [33]: 72%; residual activity [34]: 100%; % Inhibition of Control Specific Binding (Mean n=2) [35]: 46%; residual activity [36]: 82%; residual activity [37]: 97% |
